# Reference: ChEMBL document CHEMBL1158065, “Prenylated phenolics from Ganoderma fornicatum” (J Nat Prod, 2006)
# System: HEp-2
# Assay: Cytotoxicity against human Hep2 cells by MTT method
# Format: functional, cell-based
row,Structure (SMILES),IC50 [µg/mL]
1,CC(C)=CCC/C(C)=C/CCC(CC(=O)c1cc(O)ccc1O)C(=O)O (configuration not stated) [FORNICIN C],23
2,COC1(c2cc(O)ccc2O)C=C(CC/C=C(\C)CCC=C(C)C)C(=O)O1 (configuration not stated) [FORNICIN B],15
